In PMC2694220 (Biochemistry, 2009):

How the values were obtained:
WbpB = WbpB (Pseudomonas aeruginosa, UniProt G3XD23); experiment: capillary electrophoresis of conversion to UDP-GlcNAc; format: biochemical; conditions: 10 mM α-KG, 50 mM HEPES pH 8.0, 30 °C, no WbpE
WbpE = WbpE (Pseudomonas aeruginosa, UniProt Q9HZ76); experiment: capillary electrophoresis, coupled WbpB/WbpE reaction; format: biochemical; conditions: 25 mM L-glutamine in place of L-glutamate; otherwise same
[1] = tested on: CC(=O)N[C@H]1[C@@H](OP(=O)(O)OP(=O)(O)OC[C@H]2O[C@@H](n3ccc(=O)[nH]c3=O)[C@H](O)[C@@H]2O)O[C@H](C(=O)O)[C@@H](O)[C@@H]1N; experiment: purified protein; conditions: 1.5 mM AcCoA, 50 mM HEPES pH 7.0, 30 °C, BSA carrier

WbpB, sequence (G3XD23 whole entry): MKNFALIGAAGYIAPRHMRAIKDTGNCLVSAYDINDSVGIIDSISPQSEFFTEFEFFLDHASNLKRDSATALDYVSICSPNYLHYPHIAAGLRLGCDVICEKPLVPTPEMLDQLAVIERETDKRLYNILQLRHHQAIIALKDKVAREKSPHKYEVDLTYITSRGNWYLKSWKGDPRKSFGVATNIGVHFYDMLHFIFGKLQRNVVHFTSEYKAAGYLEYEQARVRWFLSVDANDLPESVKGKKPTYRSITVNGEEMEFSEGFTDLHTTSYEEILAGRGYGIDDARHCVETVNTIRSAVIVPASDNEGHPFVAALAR
WbpE, sequence (Q9HZ76 whole entry): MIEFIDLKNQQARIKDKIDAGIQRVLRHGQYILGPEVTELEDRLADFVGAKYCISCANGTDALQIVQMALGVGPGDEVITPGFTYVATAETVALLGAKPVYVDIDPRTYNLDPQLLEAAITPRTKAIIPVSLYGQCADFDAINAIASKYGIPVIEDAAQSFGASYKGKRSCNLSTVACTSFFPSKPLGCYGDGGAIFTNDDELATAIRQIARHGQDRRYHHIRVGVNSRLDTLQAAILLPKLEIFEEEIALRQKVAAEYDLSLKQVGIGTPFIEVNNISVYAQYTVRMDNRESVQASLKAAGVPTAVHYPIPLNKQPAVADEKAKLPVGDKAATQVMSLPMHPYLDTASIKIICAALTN

In the case of `CC(=O)N[C@H]1[C@@H](OP(=O)(O)OP(=O)(O)OC[C@H]2O[C@@H](n3ccc(=O)[nH]c3=O)[C@H](O)[C@@H]2O)O[C@H](C(=O)O)[C@@H](O)[C@@H]1O` [UDP-GlcNAcA], the “capillary electrophoresis of conversion to UDP-GlcNAc(3keto)A” value (WbpB) is reported as “complete conversion of the UDP-GlcNAcA starting material to the UDP-GlcNAc(3keto)A product was observed by CE”.

`NC(=O)CC[C@H](N)C(=O)O` [L-glutamine] was tested, and the “% conversion at 25 mM” value (WbpE) was 10%.

WbpD (Pseudomonas aeruginosa PAO1) was tested, and the Km [1] was 107 ± 15 µM and the kcat [1] was “(2.9 ± 0.12) × 10^3 min^−1”.
